Measured values from paper PMC4603696, “Discovery and characterization of novel small-molecule inhibitors targeting nicotinamide phosphoribosyltransferase” (Scientific Reports, 2015).
Entries after “also recorded” stand apart in the source; their conditions may differ. Like-named read-outs stand apart in the source and are kept apart here.

Tests used:
[1] = system: HepG2 cells; assay: Sulforhodamine B protein staining (SRB) assay in HepG2; type: cell-based, human; details: for IC50: Homo sapiens
Procedure: (§1) Sulfor hod am ine B p rotei n st ai ning (SRB) assay
(§2) Cell pr oliferat ion was eva lua ted by sul for hod amine B pr ot ein st aini ng (SRB) assa y10-12.
(§3) Briefly, cel ls were se ede d int o 96-well pl ates, cul tur ed overni ght , and trea ted with correspond ing com poun ds for 72 h. Cells were the n fixe d with 10% trichl or oa cetic aci d and st ained with sul for hoda mine B (Sigm a). Sul for hoda mine B in the cells was di sso lved in 10 mmol/L Tris-HCl and was measured at 515 nm usi ng a multiw ell spect ropho tometer (VERSA max, Mol ecul ar Devi ces, Sunnyva le, CA). The inhi bi tion rat e on cell pr olif eratio n was cal culated for each well as (A515contr ol cells-A 515tr eated cells)/A515contr ol cells×100 % (A515:
(§4) OD va lue at 515 nm ). The averag e IC50 va lue s were de termine d by Logit method from at leas t t hr eei nde pe nde nt test s.

[2] = system: Huh7-C cells; assay: CCK-8 assay in stem-like human hepatoma cell line Huh7-C; type: cell-based; details: 60 h, read-out: CCK-8 assay in Huh7-C: IC50
Procedure: Cellc ount ing k it-8 (CCK-8) assa y
Cell vi ability was de termine d by ou r previ ous method9 usi ng the Cell Counting Kit-8 (CCK -8, […]
10 μl CCK-8 sol ution was adde d to the cul ture medium and inc ub ated at 37 °C for 1 h. Th e absor banc e at 450 nm (A450) was de tected by a pl ate reade r. Each e xperi ment w as carr ied out i n t riplic ate i n thr ee r eplic ate w ells.

[3] = system: A549 cells; assay: SRB assay in A549; type: cell-based, human
Procedure: as §1, §2, §3, §4

[4] = target: T1, NMNAT (Mus musculus, UniProt Q9EPA7); assay: Isothermal titration calorimetry (ITC); type: binding; details: 554 μM MS0 into 25 μM protein, 25 °C
T1 construct: His-tag; made in house; host or cells: E. coli BL21-CodonPlus (DE3)-RIL
Procedure: Thermodynamic parameters of small molecule binding to protein were determined using a MicroCal VP-ITC calorimeter. NMNAT protein solutions were ultrafiltrated in Amicon Ultra-0.5 Centrifugal Filter Unit (Merck Millipore) against buffer [20 mM Tris (pH 7.5), 20 mM NaCl], which was subsequently used to prepare a matched compound solution. […] Measurements were performed at 25 °C with spacing of 90 s between injections.
Pr otei n e xp ressi on andpur ification
Prot eins were expres se d and pur ified by our pr e vi ous methods2,3. […]
The pur ity of the pr ot ein was more tha n 90% de term ine d by SDS-PAGE and Coo massi e Blue (Tiange n, C hi na) staining and f ur the r by w est ern bl ot a na lysi s (Fig. S1).
High t hrou ghput sc reen ing (HTS)
HTS was pe rfor med usi ng our previ ously repor ted method 3. 0.5 μl st oc k of each com poun d (1 mM DMSO st oc k) was transf erred to a 96-well PCR pl ate for sc ree ni ng. […] Fina lly, 85 μl mixt ur es in each well were transf erred int o a flat-bottom 96-well black plate (Greiner) , and the fluoresc enc e (F) was measured usi ng a Teca n Inf inity M200 pl ate reader (Tecan Group Lt d.) by se tting the exc itation and emissi on wave leng th to 382 nm and 445nm respe ctive ly. […]

[5] = system: metastatic lung cancer cell line 95-D; assay: SRB assay in 95-D; type: cell-based, human; details: 72 hours
Procedure: as §1, §2, §3, §4

[6] = system: HCT116 cells; assay: SRB assay in HCT116; type: cell-based; details: Homo sapiens, HCT-116, read-out: anti-proliferation IC50, initial screen
Procedure: as §1, §2, §3, §4

[7] = system: NAMPT; details: read-out: biochemical potency IC50; reported independently by Zheng et al. ref 19, 22; cited from earlier work

T1 sequence (Q9EPA7 whole entry): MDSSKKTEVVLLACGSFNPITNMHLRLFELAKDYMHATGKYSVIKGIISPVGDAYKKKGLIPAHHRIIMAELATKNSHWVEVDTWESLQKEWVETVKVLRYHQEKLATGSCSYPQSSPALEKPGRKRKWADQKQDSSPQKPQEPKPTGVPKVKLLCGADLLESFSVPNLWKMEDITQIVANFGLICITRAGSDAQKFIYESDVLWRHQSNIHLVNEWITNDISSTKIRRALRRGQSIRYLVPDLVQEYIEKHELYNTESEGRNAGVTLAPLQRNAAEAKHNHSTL

For `O=S(=O)(c1ccc(NC(=S)NCc2cccnc2)cc1)N1CCCCC1` [MS0], the “growth inhibition (SRB, in words)” value ([1]; HepG2, 72 hours) was “potent growth inhibition”, the IC50 ([1]; HepG2, 72 h, read-out: SRB assay in HepG2: IC50, HepG2, second test, 2-fold concentration gradient, 72 hours) was ~3000 nM and the IC50 ([1]; HepG2, read-out: anti-proliferation IC50, initial screen, HepG2, SRB, 10-fold concentration gradient) was < 5000 nM. The IC50 [2] was 722 ± 36.3 nM, the “growth inhibition (SRB, in words)” value ([3]; A549, 72 hours) was “potent growth inhibition” and the IC50 ([3]; Homo sapiens, A549, read-out: anti-proliferation IC50, initial screen) was < 5000 nM. For the same molecule, the “interaction with NMNAT by ITC” value [4] was “did not detect an interaction; also recorded: does not show detectable interaction”, the “growth inhibition (SRB, in words)” value [5] was “potent growth inhibition” and the IC50 [6] was < 5000 nM. For the same molecule, the IC50 [7] was […].
